In publication PMC9585581, “Developing Photoaffinity Probes for Dopamine Receptor D2 to Determine Targets of Parkinson’s Disease Drugs” (ACS Chemical Neuroscience, 2022):

Tests used:
human DRD2, long form = target: T1, human DRD2, long form (Homo sapiens, UniProt P14416); assay: Intracellular Ca2+ mobilization assay (HEK293T stably expressing DRD2, chimeric G-protein Gqi5, calcium dye, confocal microscopy); type: cell-based; details: for EC50: Ca assay, HEK293T stably expressing human DRD2 and chimeric G-protein, Hill slope of 1.0; for activity in calcium flux assay (in words): calcium flux bioactivity
T1 construct: expressed in transfected cells; Gqi5 chimera transiently transfected
T1 sequence (P14416 whole entry): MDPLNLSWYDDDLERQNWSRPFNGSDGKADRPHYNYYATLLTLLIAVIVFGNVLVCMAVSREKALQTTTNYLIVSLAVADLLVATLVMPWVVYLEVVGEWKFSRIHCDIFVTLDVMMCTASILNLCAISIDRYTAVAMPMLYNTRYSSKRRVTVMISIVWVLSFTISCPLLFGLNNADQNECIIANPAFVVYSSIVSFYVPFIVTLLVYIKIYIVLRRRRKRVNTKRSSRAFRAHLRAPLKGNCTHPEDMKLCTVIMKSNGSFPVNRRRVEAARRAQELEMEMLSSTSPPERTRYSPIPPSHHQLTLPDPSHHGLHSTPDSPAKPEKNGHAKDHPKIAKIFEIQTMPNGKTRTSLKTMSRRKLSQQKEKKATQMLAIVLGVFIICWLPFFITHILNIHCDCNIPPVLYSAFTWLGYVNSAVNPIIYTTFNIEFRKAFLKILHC
Protocol: Intracellular calcium measurement was used to determine G-protein-mediated signaling by DRD2. Because DRD2 is linked to the G-protein subtype Gi, agonist binding inhibits adenyl cyclase activity.[42] To mitigate this effect, we created an HEK293T cell line stably expressing human DRD2, long form, and a chimeric G-protein, Gqi, which alters the DRD2 receptor’s G-protein coupling so that signaling can occur through Gq, resulting in an intracellular calcium flux.[43] The assay is performed by first loading the cell line with a calcium-sensing dye. Binding of the ligand to the receptor results in an influx of calcium to the cytoplasm, which can be characterized in real time by monitoring the increase in dye fluorescence with confocal microscopy.
Figure 2 Intracellular calcium flux assay. HEK293T cell line stably expressing constructs for human DRD2 and a chimeric G-protein is loaded with calcium-sensing dye, […]. After dosing the probe, confocal microscopy is used to determine the calcium flux in the cell by change in dye fluorescence.
A stable HEK293T-derived cell line-expressing DRD2-Strep Tag II fusion was maintained in DMEM supplemented with 10% FBS, 100 U/mL penicillin, and 100 μg/mL streptomycin in a humidified atmosphere at 37 °C in 5% CO2. On day 1, cells were plated at a density of 4 × 10^4 cells/cm^2 in a poly-D-lysine-coated 18-well chambered coverslip (Ibidi). The following day (day 2), cells were transfected with a 10× solution of 3:1 mixture of Gqi5/Optifect Transfection Reagent (Thermo) in unsupplemented DMEM. On day 3, the transfection media was removed and calcium-sensitive dye loading was performed following the protocol of the Fluo-4 Direct Calcium Assay Kit (Invitrogen). 5× drug stimulation solutions were prepared in filter-sterilized HBSS. Once Fluo-4 loading was complete, a time series acquisition at a rate of 1 fps was recorded using a Zeiss LSM 980 with Airyscan 2. Basal fluorescence was recorded for 20 s, followed by the addition of drug solution to a 1× final concentration and acquisition for an additional 40 s. Results in the form of fold fluorescence increase over basal were averaged over 50 cells in ImageJ (NIH), and GraphPad Prism was used for the analysis of data.

[1] = system: DRD2-expressing cell line (DRD2-Strep Tag II fusion HEK293T); assay: Colocalization analysis via confocal microscopy of photo-cross-linked, dye-clicked probe in cells; type: cell-based, human; details: probe 5 μM, Alexa Fluor 555 azide clicked
Protocol: After the biochemical characterization of the dynamic interaction between the probe and target, we set out to characterize the static interaction: colocalization of probe and receptor in cells, with an emphasis on both on- and off-target labeling. Specifically, due to the known propensity for photo-cross-linking groups to nonspecifically label, we wanted a holistic view of how the probes interacted with whole cells. Thus, we treated our DRD2-expressing cell line with a 5 μM solution of the probe, photo-cross-linked, “clicked” on an azido fluorophore, and labeled the DRD2 receptor via an antibody conjugated to a complementary fluorophore (Figure 4a). Our results (Figure 4b) indicate that there is indeed background labeling with the probes. […] We therefore proceeded to quantify the specific vs nonspecific binding of the probe.
Figure 4 Photo-cross-linking of dye-clicked probe: confocal microscopy. (a) Schematic of the methodology used in the labeling process. […]
HEK293T cells and a stable HEK293T-derived cell line-expressing DRD2-Strep Tag II fusion were maintained in DMEM supplemented with 10% FBS, 100 U/mL penicillin, and 100 μg/mL streptomycin in a humidified atmosphere at 37 °C in 5% CO2. […] The cells were then washed 3 times with TBS and imaged for Alexa Fluor 488 fluorescence and AF555 fluorescence using a Zeiss LSM 980 with Airyscan 2. […]

In the case of `C#CCOc1ccc(C(=O)c2ccc(CN[C@H]3CCc4nc(N)sc4C3)cc2)cc1` [Compound 7, (S)-(4-(((2-Amino-4,5,6,7-tetrahydrobenzo[d]thiazol-6-yl)amino)methyl)phenyl)(4-(prop-2-yn-1-yloxy)phenyl)methanone], the EC50 (human DRD2, long form) is reported as 2190 nM, the “activity in calcium flux assay (in words)” value (human DRD2, long form) is reported as “low micromolar potency” and the “labeling of DRD2-expressing cells (confocal microscopy)” value [1] is reported as “higher avidity relative to the other probes”.

In the case of `C#CCOc1ccc(C(=O)c2ccc(CNCCc3cccc4c3CC(=O)N4)cc2)cc1` [Compound 5, 4-(2-((4-(4-(Prop-2-yn-1-yloxy)benzoyl)benzyl)amino)ethyl)indolin-2-one], the EC50 (human DRD2, long form) is reported as 1670 nM, the “difference in potency of probe vs parent compound” value (human DRD2, long form; calcium assay, 5 vs ropinirole) is reported as about 10 × and the “activity in calcium flux assay (in words)” value (human DRD2, long form) is reported as “low micromolar potency”. For the same compound, the “labeling of DRD2-expressing cells (confocal microscopy)” value [1] was “higher avidity relative to the other probes”.
